Experiments:
Experiment in all cases: Cell killing by trypan blue staining, cells seeded at 10^6 per ml
Format in all cases: cell-based
U266 cell line = conditions: U266, agent added D-0 (LMB38 100 ng/ml), washed after D-3
Description: (§1) The BCMA-positive H929, U266, and RPMI cell lines were seeded at 10^6 per ml in 3 ml volume. LMB38 (BM24-Fab-LRggs) was added at 100 ng/ml at Day 0 (D-0). Cells (10 μl) were taken on different days and counted after trypan blue staining. After D-3, cells were washed and plated with media containing no toxin. For the 6 hour group, cells were washed after 6 h and plated in regular media containing no toxin. Cyclohexamide (Chxm) and 205 were used as positive controls; SS1-Fab-immunotoxin targeting mesothelin was used as a negative control (Ctrl).

RPMI cell line = conditions: agent added D-0 (LMB38 100 ng/ml)
Description: as §1

H929 cell line = conditions: H929, agent added D-0 (LMB38 100 ng/ml), washed after D-3
Description: as §1

For `C[C@@H]1C[C@@H]([C@H](O)CC2CC(=O)NC(=O)C2)C(=O)[C@@H](C)C1` [Chxm, Cyclohexamide], the Percent dead (U266 cell line; D-0) was 7%, the Percent dead (U266 cell line; D-1) was 25% and the Percent dead (U266 cell line; D-2) was 50%. It also gave a Percent dead (U266 cell line; D-3) of 80%, a Percent dead (U266 cell line; D-6) of 100% and a Percent dead (RPMI cell line; washed after D-3, D-0) of 15%. The Percent dead (RPMI cell line; washed after D-3, D-1) was 75%, the Percent dead (RPMI cell line; washed after D-3, D-2) was 100% and the Percent dead (RPMI cell line; washed after D-3, D-3) was 100%. The Percent dead (RPMI cell line; washed after D-3, D-6) was 100%, the Percent dead (H929 cell line; D-0) was 9% and the Percent dead (H929 cell line; D-1) was 70%. The Percent dead (H929 cell line; D-2) was 92%, the Percent dead (H929 cell line; D-3) was 100% and the Percent dead (H929 cell line; D-6) was 100%.
